Assay results from patent US12036226B2, “Methods of treating subjects having diabetes with chronic kidney disease” (Poxel SA, priority 2018, dated 2024).
Read-outs that look alike come from different tables or passages of the source.

Assay: Phase 1 study of pharmacokinetics and safety of imeglimin in subjects with renal impairment compared to normal renal function
Assay type: in vivo, human
Conditions: for concentration at 8 day / Vd/F / Tmax / Cmax / half-life / AUC / AUC(0-t) / CL renal: human, po; for concentration at 8 day / Vd/F / Tmax / Cmax / half-life / AUC / AUC(0-t): plasma; for Vd/F: read-out: Vz/F; for Tmax: median, read-out: tmax; for AUC: read-out: AUC0-τ; for CL renal: urine; for difference in exposure vs normal subjects: Day 8
Procedure: An open-label, parallel-group, multi-center, multiple oral dose study to investigate the pharmacokinetics of imeglimin in subjects with renal impairment compared to subjects with normal renal function was completed.
In this study, a total of 51 subjects received imeglimin at the daily dose of 1000 mg, administered either as 1000 mg QD (once a day) or 500 mg bid (twice a day) during 8 days. […] Twenty-four control subjects with normal renal function were matched to mild and moderate (10 receiving QD and 8 receiving bid regimen) and to severe (6 receiving bid regimen) renal impaired subjects. Measurement of the urine to plasma ratio of creatinine using 24 hours urine sampling was calculated (CLCrea).
Imeglimin was administered in the morning time during 8 consecutive days in the group of subjects receiving 1000 mg once a day and in the morning and evening time during 7 consecutive days followed by a morning administration of 500 mg in the morning time on Day 8 in the group of subjects receiving 500 mg twice a day. Morning administrations on Days 1 and 8 were performed on a fasted state, after a 10 hours overnight fasting and during 4 hours after imeglimin administration.
Inclusion Criteria: For subjects with normal renal functions: CLCrea>80 mL/min based on calculation using 24-hrs sampling on day −2. For subjects with impaired renal function: CLCrea 50 to 80 mL/min for subjects with mild renal impairment, 30 to <50 mL/min for subjects with moderate renal impairment, and <30 mL/min for subjects with severe renal impairment based on calculation using 24-hrs sampling on day −2.
Pharmacokinetic parameters included apparent volume of distribution during the terminal phase following extravascular administration (Vz/F), area under the curve of the plasma concentration as a function of time (AUC0-t), the maximum observed concentration (Cmax), the time to maximum concentration (tmax), the plasma half-life (t1/2), the total body clearance of drug from plasma following extravascular administration (CL/F), and other parameters.
The urinary excretion parameters of imeglimin in subjects with differing degrees of renal impairment following QD or bid oral doses of imeglimin on day 8 are summarized in Table 3 and Table 4. Parameters measured include amount of unchanged drug excreted in urine as a function of time (Ae0-t), renal clearance (CLR), and the amount of unchanged drug excreted in urine during one dosing interval (Ae0-τ), and the percentage of administered dose excreted in urine during one dosing interval (fe0-τ).
For the evaluation of safety and tolerability of multiple oral doses of 1000 mg imeglimin QD (i.e. a total dose of 8000 mg imeglimin) or 500 mg imeglimin BID (i.e. a total dose of 7500 mg imeglimin), laboratory tests (hematology, clinical chemistry, urinalysis), determination of vital signs, ECG recordings, questioning of AEs and physical examinations were performed. […] The incidence of AEs observed within the course of the study was low. Overall 31 out of 51 subjects reported 54 treatment emergent AEs. Of these, only 15 were judged as likely related to the study drug. The majority (39 AEs) were assessed as unlikely related. Based on these low incidence no clear differences between the dose regimens and between the renal impairment groups can be shown.

[1] = 500 mg, 500 mg bid oral, Day 8, Part 1 normal renal function (N = 8), geometric mean
[2] = 500 mg, 500 mg bid oral, Day 8, Part 2 CKD Stage 4 (severe renal impairment; N = 5), geometric mean
[3] = 500 mg, 500 mg bid oral, Day 8, Part 2 normal renal function (N = 6), geometric mean
[4] = 1000 mg, 1000 mg QD oral, Day 8, CKD Stage 3 (moderate renal impairment; N = 6), geometric mean
[5] = 1000 mg, 1000 mg QD oral, Day 8, CKD stage 2 (mild renal impairment; N = 5), geometric mean
[6] = 1000 mg, 1000 mg QD oral, Day 8, normal renal function (N = 8), geometric mean
[7] = 1000 mg, 1000 mg QD oral, Day 8, normal renal function (N = 10), geometric mean

For `C[C@H]1N=C(N(C)C)N=C(N)N1` [imeglimin, (6R)—N^2, N^2,6-trimethyl-3,6-dihydro-1,3,5-triazine-2,4-diamine], the concentration at 8 day (500 mg, 500 mg bid oral, Day 8, Part 1 CKD Stage 3 (moderate renal impairment; N = 6), geometric mean, read-out: Cav) was 1430 ng/mL, the Vd/F (500 mg, 500 mg bid oral, Day 8, Part 1 CKD Stage 3 (moderate renal impairment; N = 6), geometric mean) was 922 L and the Tmax (500 mg, 500 mg bid oral, Day 8, Part 1 CKD Stage 3 (moderate renal impairment; N = 6)) was 3.5 h. The Cmax [1] was 1030 ng/mL, the half-life [1] was 13.2 h and the AUC [1] was 7390 ng·h/mL. For the same molecule, the concentration at 8 day (500 mg, 500 mg bid oral, Day 8, Part 1 normal renal function (N = 8), geometric mean, read-out: Cav) was 616 ng/mL, the concentration at 8 day (500 mg, 500 mg bid oral, Day 8, Part 1 normal renal function (N = 8), geometric mean, read-out: Cmin) was 202 ng/mL and the Vd/F [1] was 1290 L. The Tmax (500 mg, 500 mg bid oral, Day 8, Part 1 normal renal function (N = 8)) was 3.5 h, the Cmax [2] was 2860 ng/mL and the half-life [2] was 17.6 h. The AUC [2] was 24800 ng·h/mL, the concentration at 8 day (500 mg, 500 mg bid oral, Day 8, Part 2 CKD Stage 4 (severe renal impairment; N = 5), geometric mean, read-out: Cav) was 2070 ng/mL and the Vd/F [2] was 511 L. For the same molecule, the Tmax (500 mg, 500 mg bid oral, Day 8, Part 2 CKD Stage 4 (severe renal impairment; N = 5)) was 3.5 h, the Cmax [3] was 998 ng/mL and the half-life [3] was 15 h. The AUC [3] was 6970 ng·h/mL, the concentration at 8 day (500 mg, 500 mg bid oral, Day 8, Part 2 normal renal function (N = 6), geometric mean, read-out: Cav) was 581 ng/mL and the Vd/F [3] was 1550 L. The Tmax (500 mg, 500 mg bid oral, Day 8, Part 2 normal renal function (N = 6)) was 3.75 h, the AUC(0-t) [4] was 29100 ng·h/mL and the Cmax [4] was 2570 ng/mL. It also gave a half-life [4] of 23.4 h, a concentration at 8 day (1000 mg, 1000 mg QD oral, Day 8, CKD Stage 3 (moderate renal impairment; N = 6), geometric mean, read-out: Cav) of 1210 ng/mL and a concentration at 8 day (1000 mg, 1000 mg QD oral, Day 8, CKD Stage 3 (moderate renal impairment; N = 6), geometric mean, read-out: Cmin) of 335 ng/mL. It also gave a Vd/F [4] of 1160 L, a Tmax (1000 mg, 1000 mg QD oral, Day 8, CKD Stage 3 (moderate renal impairment; N = 6)) of 5 h and an AUC(0-t) [5] of 20100 ng·h/mL. For the same molecule, the Cmax [5] was 2050 ng/mL, the half-life [5] was 15 h and the concentration at 8 day (1000 mg, 1000 mg QD oral, Day 8, CKD stage 2 (mild renal impairment; N = 5), geometric mean, read-out: Cav) was 838 ng/mL. It also gave a concentration at 8 day (1000 mg, 1000 mg QD oral, Day 8, CKD stage 2 (mild renal impairment; N = 5), geometric mean, read-out: Cmin) of 178 ng/mL, a Vd/F [5] of 1070 L and a Tmax (1000 mg, 1000 mg QD oral, Day 8, CKD stage 2 (mild renal impairment; N = 5)) of 4 h. It also gave a half-life [6] of 16.4 h, a Vd/F [6] of 1570 L and an AUC(0-t) [7] of 15400 ng·h/mL. It also gave a Cmax [7] of 1750 ng/mL, a concentration at 8 day (1000 mg, 1000 mg QD oral, Day 8, normal renal function (N = 10), geometric mean, read-out: Cmin) of 115 ng/mL and a Tmax (1000 mg, 1000 mg QD oral, Day 8, normal renal function (N = 10)) of 4 h. The CL renal (500 mg, 500 mg bid oral, Day 8, CKD Stage 2 (mild renal impairment) (N = 4), geometric mean (CV %), read-out: CLR) was 323 mL/min, the CL renal (500 mg, 500 mg bid oral, Day 8, CKD Stage 3 (moderate renal impairment) (N = 6), geometric mean (CV %), read-out: CLR) was 193 mL/min and the CL renal (500 mg, 500 mg bid oral, Day 8, CKD Stage 4 (severe renal impairment) (N = 5), geometric mean (CV %), read-out: CLR) was 140 mL/min. It also gave a CL renal (500 mg, 500 mg bid oral, Day 8, normal renal function (N = 6), geometric mean (CV %), read-out: CLR) of 548 mL/min, a CL renal (500 mg, 500 mg bid oral, Day 8, normal renal function (N = 8), geometric mean (CV %), read-out: CLR) of 501 mL/min and a CL renal (1000 mg, 1000 mg QD oral, Day 8, CKD Stage 2 (mild renal impairment), N = 2, min, max, read-out: CLR (renal clearance)) of 388 to 522 mL/min. For the same molecule, the CL renal (1000 mg, 1000 mg QD oral, Day 8, CKD Stage 3 (moderate renal impairment) (N = 6), geometric mean, read-out: CLR (renal clearance)) was 197 mL/min, the CL renal (1000 mg, 1000 mg QD oral, Day 8, normal renal function (N = 10), geometric mean, read-out: CLR (renal clearance)) was 418 mL/min and the “difference in exposure vs normal subjects” value (from here on “difference in exposure”) (mild renal impairment) was “up to 1.5 fold”. For the same molecule, the “difference in exposure” value (moderate renal impairment) was at most 2.3 fold, the “AEs assessed as unlikely related” value (of 54 treatment emergent AEs) was 39 and the “AEs judged as likely related to the study drug” value (of 54 treatment emergent AEs) was 15. The “Steady-state attained by” value (repeated dosing of 1000 mg QD and 500 mg bid) was at most 6 days, the “decrease in renal clearance vs normal subjects” value (severe renal impairment) was at most 74% and the “decrease in total oral body clearance vs normal subjects” value (severe renal impairment) was “up to 72%”. The “difference in exposure” value (severe renal impairment) was “up to 3.6 fold” and the “general safety and tolerability assessment” value (total daily dose of 1000 mg over 8 days) was “good or very good tolerability”.
